Each structure is given as a SMILES string.

A short description of this series: Solubility assessment of CORT125281 in various excipients. Type of series: physicochemical. As to the method: The solubility of the API was assessed in Labrasol, Kolliphor RH40, Kollisolv P124 and Kolliphor HS15 in order to assess scope for formulation alternatives. […] It is probable that these would be able to be solubilized given more time/energy input.

With `Cn1ncc(S(=O)(=O)N2CC[C@H]3Cc4c(cnn4-c4ccc(F)cc4)C[C@]3(C(=O)c3cc(C(F)(F)F)ccn3)C2)n1` [CORT125281, ((4aR,8aS)-1-(4-fluorophenyl)-6-((2-methyl-2H-1,2,3-triazol-4-yl)sulfonyl)-4,4a,5,6,7,8,8a,9-octahydro-1H-pyrazolo[3,4-g]isoquinolin-4a-yl)(4-(trifluoromethyl)pyridin-2-yl)methanone], the “solubility of the API in excipient, visual and microscopic analysis” value by setting is: (Kolliphor HS15 mix) “visibly clear, but upon microscopic analysis, they were found to contain a small number of API crystals”; (Labrasol mix) “visibly clear, but upon microscopic analysis, they were found to contain a small number of API crystals”. Further, the “solubility of the API in excipient” value is, setting by setting: (in Kolliphor RH40) < 40 mg/g; (in Kollisolv P124) < 40 mg/g.

Source of the values: patent US20180325891A1, “OCTAHYDRO AZADECALIN FORMULATIONS” (Corcept Therapeutics, Inc., priority 2017, published 2018).
